Assays:
[1] = Pharmacokinetic properties and excretion in the rat; type: in vivo
Procedure: (§1) The pharmacokinetic (PK) properties of N-(4-tert-Butyl-benzyl)-3-chloro-N-[2-(4-chloro-3-ethyl-phenyl)-ethyl]-2-fluoro-5-trifluoromethyl-benz-amide were assessed in the rat and cynomolgus monkey. […] The very high protein binding, in combination with moderate membrane permeability, is the likely cause for the low volume of distribution observed in vivo.
In the rat and cynomolgus monkey, the major excretion route was the bile and feces, independent of the route of administration (approximately 92% of administered dose eliminated). Less than 1% of the dose was eliminated renally.

plasma protein = experiment: In vitro plasma protein binding; type: in vitro ADME
Procedure: as §1

[2] = system: 50 pharmacologically relevant receptors; experiment: Binding screen on 50 pharmacologically relevant receptors; details: concentration of 10 μM
[3] = system: HDL-C, LDL-C, apoA-I, apoB-100; experiment: Plasma lipids and apolipoproteins after multiple doses for 14 days in clinical study; type: in vivo, human
Procedure: The CETP inhibition achieved with multiple doses of up to 420 mg N-(4-tert-Butyl-benzyl)-3-chloro-N-[2-(4-chloro-3-ethyl-phenyl)-ethyl]-2-fluoro-5-trifluoromethyl-benz-amide for 14 days in healthy subjects was associated with increase of HDL-C and apolipoprotein A-I (apoA-I) and decrease in LDL-C and apolipoprotein B-100 (apoB-100). […] The maximum mean increase from baseline ranged from 48% to 55% with the 180 and 420 mg doses, respectively, and was maintained over the entire dosing interval of 24 hours. For LDL-C, plasma levels decreased after 14 days of treatment with all N-(4-tert-Butyl-benzyl)-3-chloro-N-[2-(4-chloro-3-ethyl-phenyl)-ethyl]-2-fluoro-5-trifluoromethyl-benz-amide doses from 10 to 420 mg.

CETP activity = experiment: In vivo inhibition of CETP activity in hamsters
[4] = Clinical pharmacokinetics, SAD/MAD study and food effect; type: in vivo, human
Procedure: Two clinical studies have been completed with N-(4-tert-Butyl-benzyl)-3-chloro-N-[2-(4-chloro-3-ethyl-phenyl)-ethyl]-2-fluoro-5-trifluoromethyl-benz-amide in male healthy subject and male mildly dyslipidemic subjects.
Following oral administration of N-(4-tert-Butyl-benzyl)-3-chloro-N-[2-(4-chloro-3-ethyl-phenyl)-ethyl]-2-fluoro-5-trifluoromethyl-benz-amide at single ascending doses (SAD) and multiple ascending doses (MAD) in a first clinical study, a lag time (Tlag) of 0.5 hour was observed, and Cmax was achieved on average at 3 hours post-dose.
Food increased the oral bioavailability of N-(4-tert-Butyl-benzyl)-3-chloro-N-[2-(4-chloro-3-ethyl-phenyl)-ethyl]-2-fluoro-5-trifluoromethyl-benz-amide. A standard breakfast increased exposure in terms of AUC and Cmax by approximately 4- to 6-fold, compared with the fasted state and depending on the formulation used.

[5] = multiple doses of up to 420 mg for 14 days, healthy subjects

absolute oral bioavailability [1]: relatively low
dose eliminated renally [1]: Less than 1%
gastrointestinal absorption [1]: limited
terminal half-life [1]: medium to long
total systemic clearance [1]: low
volume of distribution [1]: low
plasma protein binding ([1]; across species): very high
administered dose eliminated via bile and feces ([1]; independent of the route of administration): approximately 92%
binding to 50 pharmacologically relevant receptors [2]: no significant binding
accumulation ratio for AUC0-24h ([4]; 420 mg once daily, Day 14 to Day 1): 1.4
accumulation with once-daily regimen ([4]; across doses except the highest dose (420 mg)): No accumulation was apparent
half-life ([4]; male, human, in vivo, oral, after multiple doses above 10 mg, read-out: mean terminal half-life): 15 to 35 h
dose up to which AUC0-24h and Cmax increased dose-proportionally ([4]; multiple doses (part 2 MAD)): ≤ 180 mg
lag time (Tlag) ([4]; oral, SAD and MAD, first clinical study): 0.5 h
dose up to which AUC0-24h and Cmax increased dose-proportionally ([4]; single doses (part 1 SAD)): ≤ 360 mg
Compound: CCc1cc(CCN(Cc2ccc(C(C)(C)C)cc2)C(=O)c2cc(C(F)(F)F)cc(Cl)c2F)ccc1Cl [Compound 1, N-(4-tert-Butyl-benzyl)-3-chloro-N-[2-(4-chloro-3-ethyl-phenyl)-ethyl]-2-fluoro-5-trifluoromethyl-benzamide]
plasma protein binding in vitro (plasma protein): extremely high and concentration-independent
mean LDL-C decrease over the entire dosing interval ([3]; 180 mg dose and higher doses, 14 days): at least 30%
HDL-C maximum mean increase from baseline ([3]; 180 mg, 14 days): 48%
HDL-C maximum mean increase from baseline ([3]; 420 mg, 14 days): 55%
apolipoprotein A-I (apoA-I) [3, 5]: increase
apolipoprotein B-100 (apoB-100) [3, 5]: decrease
inhibition of CETP activity in vivo (CETP activity): inhibition of CETP activity has been demonstrated
